From article PMC5515891 (Scientific Reports, 2017)

Target: Opc (Neisseria meningitidis, UniProt Q7DDI3)
Assay type: binding
Conditions: Opc+ outer membrane preparation (4 mg/ml, PBS) in cell, 100 µM glycan in syringe; Opc- preparation and PBS controls subtracted

Chain of Opc (Q7DDI3 20-272 limits assumed): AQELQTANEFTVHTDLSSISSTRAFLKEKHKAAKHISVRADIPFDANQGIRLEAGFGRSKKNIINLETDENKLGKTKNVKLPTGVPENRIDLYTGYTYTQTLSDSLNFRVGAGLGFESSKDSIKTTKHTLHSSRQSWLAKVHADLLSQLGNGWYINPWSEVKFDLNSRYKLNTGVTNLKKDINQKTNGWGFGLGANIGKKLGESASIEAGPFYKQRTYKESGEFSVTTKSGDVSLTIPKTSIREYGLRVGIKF

Structure (SMILES) | Kd
CC(=O)N[C@H]1[C@H]([C@H](O)[C@H](O)CO)O[C@@](OC[C@H]2O[C@@H](O[C@H]3[C@H](O)[C@@H](O)C(O)O[C@@H]3CO)[C@H](O)[C@@H](O)[C@H]2O)(C(=O)O)C[C@@H]1O (stereo partly drawn) [11B, Neu5Acα2-6Galβ1-4Glc] | 713 ± 140 nM
C[C@@H]1O[C@@H](O[C@H]2C(O)O[C@H](CO)[C@H](O)[C@@H]2O)[C@@H](O)[C@H](O)[C@@H]1O (stereo partly drawn) [compound 71, Fucα1-2Galβ] | 2950 ± 590 nM
CC(=O)N[C@H]1[C@H](O[C@H]2[C@@H](O)[C@@H](CO)O[C@@H](O[C@H]3[C@H](O)[C@@H](O)C(O)O[C@@H]3CO)[C@@H]2O)O[C@H](CO)[C@@H](O[C@@H]2O[C@H](CO)[C@H](O)[C@H](O)[C@H]2O)[C@@H]1O (stereo partly drawn) [compound 383, Galβ1-4GlcNAcβ1-3Galβ1-4Glcβ] | 1770 ± 690 nM
